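Cultured in 96-well plates, cells were exposed to test compound for 48 hours across five concentrations. Abbreviation: GI50, concentration required for 50% inhibition of growth.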 Activity calls are given as the source filed them. No stated cut-off is given here; in the data, active = GI50 up to about 1.1 µM and inactive = higher.
Legend:
Assay in all cases: inhibition of tumour cell growth, NCI panel, 48 h
UO-31 = test system: UO-31
DU-145 = test system: DU-145
SR = test system: SR
K562 = test system: K562
LOX IMVI = test system: LOX IMVI
HT-29 = test system: HT-29
BT-549 = test system: BT-549
SNB-75 = test system: SNB-75
A498 = test system: A498
SK-MEL-28 = test system: SK-MEL-28
NCI-H460 = test system: NCI-H460
HOP-62 = test system: HOP-62
SK-OV-3 = test system: SK-OV-3
SK-MEL-2 = test system: SK-MEL-2
UACC-257 = test system: UACC-257
NCI-H522 = test system: NCI-H522
RPMI-8226 = test system: RPMI-8226
SNB-19 = test system: SNB-19
HCT-116 = test system: HCT-116
HOP-92 = test system: HOP-92
T47D = test system: T47D
CCRF-CEM = test system: CCRF-CEM
DLD-1 = test system: DLD-1
SNB-78 = test system: SNB-78
PC-3 = test system: PC-3
SW-620 = test system: SW-620
NCI-H23 = test system: NCI-H23
SK-MEL-5 = test system: SK-MEL-5
U-251 = test system: U-251
UACC-62 = test system: UACC-62
DMS-114 = test system: DMS-114
HCC 2998 = test system: HCC 2998
786-0 = test system: 786-0
MDA-MB-435 = test system: MDA-MB-435
COLO 205 = test system: COLO 205
MOLT-4 = test system: MOLT-4
MDA-MB-231 = test system: MDA-MB-231
A549 = test system: A549
OVCAR-4 = test system: OVCAR-4
KM-20L2 = test system: KM-20L2
KM12 = test system: KM12
CAKI-1 = test system: CAKI-1
NCI-H226 = test system: NCI-H226
SF-268 = test system: SF-268
ACHN = test system: ACHN
LXFL 529 = test system: LXFL 529
EKVX = test system: EKVX
MCF7 = test system: MCF7
HOP-18 = test system: HOP-18
MDA-N = test system: MDA-N
M14 = test system: M14
Malme-3M = test system: Malme-3M
HL-60 = test system: HL-60
IGROV-1 = test system: IGROV-1
OVCAR-5 = test system: OVCAR-5
SN12C = test system: SN12C
OVCAR-3 = test system: OVCAR-3
M19-MEL = test system: M19-MEL
SF-539 = test system: SF-539
SF-295 = test system: SF-295
OVCAR-8 = test system: OVCAR-8
DMS-273 = test system: DMS-273
XF498 = test system: XF498
RXF 393 = test system: RXF 393
TK-10 = test system: TK-10
RXF 631 = test system: RXF 631
HCT-15 = test system: HCT-15

Measured: GI50

CCCC/C=C1\CCC(CN2CCOCC2)C1=O (stereo not given)
inactive: UO-31 4.22 µM | DU-145 16.9 µM | SR 1.73 µM | K562 1.19 µM | LOX IMVI 1.24 µM | HT-29 3.48 µM | BT-549 3.56 µM | SNB-75 2.27 µM | A498 14.1 µM | SK-MEL-28 3.24 µM | NCI-H460 18.2 µM | HOP-62 15.7 µM | SK-OV-3 17.1 µM | SK-MEL-2 10.1 µM | UACC-257 5.28 µM | SNB-19 15.8 µM | HCT-116 2.04 µM | HOP-92 1.83 µM | T47D 5.19 µM | DLD-1 1.75 µM | SNB-78 8.39 µM | PC-3 13.2 µM | SW-620 2.1 µM | NCI-H23 5.7 µM | SK-MEL-5 12 µM | U-251 3.53 µM | UACC-62 6.4 µM | DMS-114 4.86 µM | HCC 2998 9.08 µM | 786-0 1.8 µM | MDA-MB-435 10.7 µM | COLO 205 2.97 µM | MOLT-4 2.02 µM | MDA-MB-231 3.78 µM | A549 20.4 µM | OVCAR-4 11.7 µM | KM-20L2 4.89 µM | KM12 1.8 µM | CAKI-1 1.92 µM | NCI-H226 8.63 µM | SF-268 11.5 µM | ACHN 3.59 µM | LXFL 529 1.43 µM | EKVX 11.2 µM | MCF7 1.53 µM | MDA-N 10.7 µM | M14 3.32 µM | Malme-3M 2.19 µM | HL-60 1.57 µM | IGROV-1 14.3 µM | OVCAR-5 17.4 µM | SN12C 4.57 µM | OVCAR-3 5.32 µM | M19-MEL 4.02 µM | SF-539 7.73 µM | SF-295 16.3 µM | OVCAR-8 10 µM | DMS-273 3.74 µM | XF498 1.64 µM | RXF 393 1.51 µM | TK-10 9.31 µM | RXF 631 14.9 µM
active: NCI-H522 0.809 µM | RPMI-8226 0.15 µM | CCRF-CEM 0.724 µM | HOP-18 0.653 µM

O=C(O)CCNCCCNCCC(=O)O
inactive: K562 > 100 µM | LOX IMVI > 100 µM | HT-29 > 100 µM | SNB-75 66.8 µM | A498 > 100 µM | SK-MEL-28 > 100 µM | NCI-H460 > 100 µM | HOP-62 > 100 µM | SK-OV-3 > 100 µM | SK-MEL-2 > 100 µM | NCI-H522 > 100 µM | RPMI-8226 > 100 µM | SNB-19 > 100 µM | HCT-116 > 100 µM | HOP-92 > 100 µM | CCRF-CEM > 100 µM | DLD-1 > 100 µM | SW-620 > 100 µM | NCI-H23 > 100 µM | SK-MEL-5 > 100 µM | U-251 > 100 µM | UACC-62 > 100 µM | DMS-114 > 100 µM | HCC 2998 > 100 µM | 786-0 > 100 µM | COLO 205 > 100 µM | MOLT-4 > 100 µM | A549 > 100 µM | OVCAR-4 > 100 µM | KM-20L2 > 100 µM | KM12 > 100 µM | CAKI-1 > 100 µM | NCI-H226 > 100 µM | SF-268 > 100 µM | ACHN > 100 µM | LXFL 529 > 100 µM | EKVX > 100 µM | HOP-18 > 100 µM | M14 > 100 µM | Malme-3M > 100 µM | HL-60 > 100 µM | IGROV-1 > 100 µM | OVCAR-5 > 100 µM | SN12C > 100 µM | OVCAR-3 > 100 µM | M19-MEL > 100 µM | SF-539 > 100 µM | SF-295 > 100 µM | OVCAR-8 > 100 µM | DMS-273 > 100 µM | XF498 > 100 µM | RXF 393 > 100 µM | TK-10 > 100 µM | RXF 631 > 100 µM
> 100 µM: HCT-15

COc1cc(C2C(C(=O)O)=C(COC(C)=O)Oc3cc4c(cc32)OCO4)cc(OC)c1OC(C)=O (stereo not given)
> 100 µM: HCT-15
inactive: UO-31 > 100 µM | K562 > 100 µM | LOX IMVI > 100 µM | HT-29 > 100 µM | SNB-75 > 100 µM | SK-MEL-28 > 100 µM | NCI-H460 > 100 µM | HOP-62 > 100 µM | SK-OV-3 > 100 µM | SK-MEL-2 > 100 µM | UACC-257 > 100 µM | RPMI-8226 > 100 µM | SNB-19 > 100 µM | HCT-116 > 100 µM | HOP-92 > 100 µM | CCRF-CEM > 100 µM | DLD-1 > 100 µM | SNB-78 > 100 µM | SW-620 > 100 µM | NCI-H23 > 100 µM | SK-MEL-5 > 100 µM | U-251 > 100 µM | UACC-62 > 100 µM | DMS-114 > 100 µM | 786-0 > 100 µM | COLO 205 > 100 µM | MOLT-4 > 100 µM | A549 > 100 µM | OVCAR-4 > 100 µM | KM-20L2 > 100 µM | CAKI-1 > 100 µM | ACHN > 100 µM | EKVX > 100 µM | HOP-18 > 100 µM | M14 > 100 µM | Malme-3M > 100 µM | HL-60 > 100 µM | IGROV-1 > 100 µM | SN12C > 100 µM | OVCAR-3 > 100 µM | M19-MEL > 100 µM | SF-295 > 100 µM | OVCAR-8 > 100 µM | DMS-273 > 100 µM | XF498 > 100 µM | RXF 393 > 100 µM | TK-10 > 100 µM | RXF 631 > 100 µM

COc1cc(C)c(C(=O)/C=C/c2cc(OC)c(O)c(OC)c2)cc1O
inactive: UO-31 23 µM | K562 19.4 µM | LOX IMVI 19.5 µM | HT-29 30.6 µM | SNB-75 20.7 µM | A498 31.6 µM | SK-MEL-28 18.6 µM | NCI-H460 25.1 µM | HOP-62 22.7 µM | SK-OV-3 32.1 µM | SK-MEL-2 18.9 µM | UACC-257 31.1 µM | NCI-H522 18.1 µM | RPMI-8226 > 100 µM | SNB-19 18 µM | HCT-116 14.1 µM | CCRF-CEM 12.5 µM | DLD-1 15.3 µM | SNB-78 45.5 µM | SW-620 26.4 µM | NCI-H23 12.2 µM | SK-MEL-5 17 µM | U-251 19.6 µM | UACC-62 17.7 µM | DMS-114 20.5 µM | HCC 2998 16.4 µM | 786-0 19.2 µM | COLO 205 32.7 µM | MOLT-4 > 100 µM | A549 29.3 µM | OVCAR-4 21 µM | KM-20L2 26.5 µM | KM12 15.9 µM | CAKI-1 26.4 µM | SF-268 23.9 µM | ACHN 32.8 µM | LXFL 529 20.4 µM | EKVX 32.4 µM | M14 15.3 µM | Malme-3M 20.1 µM | HL-60 22.1 µM | IGROV-1 28.9 µM | OVCAR-5 27.6 µM | OVCAR-3 25.2 µM | M19-MEL 19.3 µM | SF-539 29.6 µM | SF-295 39 µM | OVCAR-8 30.2 µM | DMS-273 15.5 µM | XF498 15.7 µM | TK-10 45.6 µM | RXF 631 20.8 µM

COC(=O)/C(=N/O)C(C(=O)OC)C(=O)C(=O)Nc1c(Cl)cc(C)cc1S(=O)(=O)O (stereo not given)
inactive: UO-31 > 100 µM | SR 20.1 µM | K562 67 µM | LOX IMVI 41 µM | HT-29 > 100 µM | SNB-75 > 100 µM | A498 > 100 µM | SK-MEL-28 > 100 µM | NCI-H460 41.5 µM | HOP-62 > 100 µM | SK-OV-3 > 100 µM | SK-MEL-2 > 100 µM | UACC-257 > 100 µM | NCI-H522 33.5 µM | RPMI-8226 23.5 µM | SNB-19 > 100 µM | HCT-116 43.8 µM | HOP-92 > 100 µM | CCRF-CEM 42.8 µM | DLD-1 > 100 µM | SNB-78 > 100 µM | NCI-H23 > 100 µM | SK-MEL-5 > 100 µM | U-251 > 100 µM | UACC-62 > 100 µM | DMS-114 56.1 µM | HCC 2998 > 100 µM | 786-0 > 100 µM | COLO 205 > 100 µM | MOLT-4 > 100 µM | A549 > 100 µM | OVCAR-4 > 100 µM | KM-20L2 > 100 µM | KM12 > 100 µM | CAKI-1 > 100 µM | NCI-H226 > 100 µM | SF-268 > 100 µM | ACHN > 100 µM | LXFL 529 > 100 µM | EKVX > 100 µM | HOP-18 > 100 µM | M14 > 100 µM | Malme-3M > 100 µM | HL-60 > 100 µM | IGROV-1 > 100 µM | OVCAR-5 > 100 µM | SN12C > 100 µM | OVCAR-3 > 100 µM | M19-MEL > 100 µM | SF-539 > 100 µM | SF-295 > 100 µM | OVCAR-8 > 100 µM | DMS-273 18 µM | XF498 > 100 µM | RXF 393 > 100 µM | TK-10 > 100 µM | RXF 631 > 100 µM
> 100 µM: HCT-15
